Measured values published in publication PMC2842125 (Journal of medicinal chemistry, 2010).

Legend:
HEK293 cells = assay: EGF-stimulated ERK1/2 activation, phospho-ERK1/2 immunoblot
SHP2 = biological target: T1, SHP2 (Homo sapiens, UniProt Q06124); assay: SHP2-catalyzed pNPP hydrolysis inhibition; type: biochemical; settings: ratio of IC50 values
T1 sequence (Q06124 262-528): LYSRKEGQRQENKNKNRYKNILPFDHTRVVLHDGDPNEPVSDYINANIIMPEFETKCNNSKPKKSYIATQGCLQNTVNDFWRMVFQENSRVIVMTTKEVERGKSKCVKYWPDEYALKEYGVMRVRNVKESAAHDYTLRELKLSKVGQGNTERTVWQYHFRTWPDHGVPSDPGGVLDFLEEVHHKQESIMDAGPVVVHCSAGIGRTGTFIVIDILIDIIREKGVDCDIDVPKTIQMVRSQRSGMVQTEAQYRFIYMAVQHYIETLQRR

Cn1c(-c2ccccc2)c(-c2cn(CCC(=O)Nc3ccc(-c4ccccc4)cc3)nn2)c2cc(C(=O)O)c(O)cc21 [Compound 9, 3-(1-(3-(biphenyl-4-ylamino)-3-oxopropyl)-1H-1,2,3-triazol-4-yl)-6-hydroxy-1-methyl-2-phenyl-1H-indole-5-carboxylic acid]
EGF-induced ERK1/2 activation, dose dependence (HEK293 cells; 0 to 20 μM, EGF stimulation 60 min): concentration-dependent inhibition
initial transient phase of ERK1/2 activation (phospho-ERK1/2) (HEK293 cells; 10 μM, 3 h pre-incubation, 5-15 min post EGF 2 ng/mL): not the initial transient phase
sustained phase of ERK1/2 activation (phospho-ERK1/2) (HEK293 cells; 10 μM, 3 h pre-incubation, 60 min post EGF 2 ng/mL): strongly inhibits

Cn1c(-c2ccccc2)c(-c2cn(CC(=O)Nc3ccc(-c4ccccc4)cc3)nn2)c2cc(C(=O)O)c(O)cc21 [Compound 9a, 3-(1-(2-(Biphenyl-4-ylamino)-2-oxoethyl)-1H-1,2,3-triazol-4-yl)-6-hydroxy-1-methyl-2-phenyl-1H-indole-5-carboxylic acid]
fold change of SHP2 IC50 relative to 9 (SHP2): ~2 fold

Cn1c(-c2ccccc2)c(-c2cn(CCCC(=O)Nc3ccc(-c4ccccc4)cc3)nn2)c2cc(C(=O)O)c(O)cc21 [Compound 9b, 3-(1-(4-(biphenyl-4-ylamino)-4-oxobutyl)-1H-1,2,3-triazol-4-yl)-6-hydroxy-1-methyl-2-phenyl-1H-indole-5-carboxylic acid]
fold change of SHP2 IC50 relative to 9 (SHP2): ~2 fold

Cn1c(-c2ccccc2)c(-c2cn(CCC(=O)Nc3ccccc3)nn2)c2cc(C(=O)O)c(O)cc21 [Compound 14, 6-Hydroxy-1-methyl-3-(1-(3-oxo-3-(phenylamino)propyl)-1H-1,2,3-triazol-4yl)-2-phenyl-1H-indole-5-carboxylic acid]
pERK1/2 level normalized by total ERK1/2 (HEK293 cells; 20 μM, EGF stimulation 60 min): no appreciable change
fold change of SHP2 IC50 relative to 9 (SHP2): 15.6 fold
